Test: dye/drug loading of halloysite micro-tubes (TGA)
Assay type: physicochemical
Settings: SDS-hydrophobized halloysite lumen
Experimental: One example method of loading the micro-tubes with a (substantially) water soluble hair dye agent uses the dye Indigo carmine. The Indigo carmine dye is dissolved in 1 mL of DI water at a ratio of 4% by weight (i.e., 40 mg of dye) under sonication. 40 mg of halloysite is added to the dispersion and sonicated until a homogeneous dispersion is obtained. The dispersion is place under a low vacuum (e.g., at approximately 1 psi or less) for three cycles, one hour for each cycle. The halloysite is then thoroughly washed with DI water five time by centrifuging at 10,600 rcf for three minutes. The washed halloysite was then dried in a hot air oven at 60° C. This procedure produced a 6 to 8 weight percent dye loading efficiency, i.e., weight of dye with respect to the weight of clay micro-tubes. However, different procedures may be used and generally it is desirable to generate micro-tubes loaded to about 5 to 10 weight percent dye loading efficiency, but in other embodiments, the loading efficiency could be between 2 to 35 weight percent (or any sub-range in between, with one specific example being 2% to 15%).
One example method of loading the micro-tubes with a (substantially) water insoluble hair dye agent uses the dye Lawsone. It is preferable to modify the halloysite lumen surface to allow more ready binding of nonpolar molecules. […]

## CC1(C)C(C=C(Cl)Cl)C1C(=O)OCc1cccc(Oc2ccccc2)c1 (stereo not shown) [permethrin, Permethrin]
  content in loaded nanotubes (TGA analysis): 3-5 wt. %

Source: patent publication US10799439B2, “Coating of clay micro-tubes on surfaces of hair and natural fibers” (Louisiana Tech Research Corporation, priority 2017, dated 2020)
